Results taken from EP0391411A2, “3'-Substituted methyl nucleosides as antiviral agents” (Bristol-Myers Squibb Company, priority 1989, dated 1990).

How the values were obtained:
[1] = test system: HIV (LAV strain); test: Anti-HIV/LAV activity in CEM-F cells, p-24 gag protein ELISA; format: cell-based; settings: Human immunodeficiency virus 1, 192 h, eight days, p-24 gag protein in supernatant, read-out: HIV (ID50)
Method: The anti-HIV/LAV activity was measured in cultures of CEM-F cells. The CEM cells were infected with approximately 30 TCID₅₀ (50% tissue culture infectious dose) of HIV (LAV strain). The cells were then incubated for 45 minutes at 37°C. The test compounds, in culture medium, were added at various concentrations to the infected cells and then incubated for a further eight days. After eight days, the antiviral activity was evaluated in the culture media supernatant for p-24 gag protein by an enzyme capture assay (ELISA). The antiviral activity was expressed as the dose that inhibits 50% of the virus expression (ID₅₀ in µM) as detected by the assay described.

[2] = test system: Murine leukemia virus (MuLV); test: UV-XC plaque assay against murine retroviruses; format: cell-based; settings: SC1, SC-1 cells
Method: The compounds were evaluated for antiviral activity against Murine leukemia virus (MuLV) strains using the UV-XC plaque assay (Rowe, et al, "Virology", 42:1136, 1970).
The MuLV strains were grown in feral mouse cells (SC-1) and used for antiviral tests using the UV-XC plaque assay. Briefly, SC-1 cells are grown as monolayers in 4-well tissue culture plates and inoculated with approximately 50-100 plaque forming units of MuLV in 0.5 mL of 5% EMEM containing 20 ug/mL DEAE/Dextran. After 1 hour adsorption, the inoculum is removed and 5 mL of 5% EMEM containing three-fold dilutions of the appropriate drug are added. Five days later, the cultures are UV-irradiated with an ultraviolet lamp and rat XC sarcoma cells are added to the cultures. Three to four days after UV-irradiation, the cell cultures are stained with Giemsa stain and the plaques are enumerated. Antiviral activity is expressed in terms of the reduction in the mean number of UV-XC plaques counted in the drug treated, virus-infected cultures compared with mean number of plaques counted in untreated, virus-infected control cultures.

SMILES	IC50 [1]	IC50 [2]
Nc1ncnc2c1ncn2[C@H]1C[C@H](CO)[C@@H](CO)O1 [Example 25, 9-[2,3-Dideoxy-3-C-hydroxymethyl-β-D-erythro-pentofuranosyl]adenine]	> 10 µM	
Nc1ccn([C@H]2C[C@H](CO)[C@@H](CO)O2)c(=O)n1 [Example 16², 1-(2,3-Dideoxy-3-C-hydroxymethyl-β-D-erythro-pentofuranosyl)cytosine]	> 0.1 µM	0.06 µM
O=c1ccn([C@H]2C[C@H](CO)[C@@H](CO)O2)c(=O)[nH]1 [Example 12, 1-(2,3-Dideoxy-3-C-hydroxymethyl-β-D-erythro-pentofuranosyl)uracil]	> 10 µM	83 µM
O=c1[nH]cnc2c1ncn2[C@H]1C[C@H](CO)[C@@H](CO)O1 [Example 26, 9-(2,3-Dideoxy-3-C-hydroxymethyl-β-D-erythro-pentofuranosyl)hypoxanthine]	> 10 µM	5 µM
Cc1cn([C@@H]2C[C@H](CO)[C@@H](CO)O2)c(=O)[nH]c1=O [Example 4³, 1-(2,3-Dideoxy-3-C-hydroxymethyl-α-D-erythropentofuranosyl)thymine]		> 32 µM
Nc1ccn([C@@H]2O[C@H](CO)[C@@H](CO)[C@H]2O)c(=O)n1 [Example 8, 1-(3-Deoxy-3-C-hydroxymethyl-β-D-ribofuranosyl)cytosine]	0.8 µM	> 100 µM
Cc1cn([C@H]2C[C@H](CO)[C@@H](CO)O2)c(=O)[nH]c1=O [Example 4², 1-(2,3-Dideoxy-3-C-hydroxymethyl-β-D-erythro-pentofuranosyl)thymine]	> 10 µM	17.7 µM
Nc1ccn([C@@H]2C[C@H](CO)[C@@H](CO)O2)c(=O)n1 [Example 16³, 1-(2,3-Dideoxy-3-C-hydroxymethyl-α-D-erythro-pentofuranosyl)cytosine]	4.7 µM	
Cc1cn([C@H]2C[C@H](N=[N+]=[N-])[C@@H](CO)O2)c(=O)[nH]c1=O [AZT, 3′-Azido-3′-deoxythymidine, reference compound]	1 µM	0.0066 µM
